Results as given in PubChem BioAssay (NCI).
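Compound exposure: 48 hours, 5 concentrations, 96-well plates. GI50 = concentration required for 50% inhibition of growth. The concentration for full growth arrest is given as TGI.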

Tests used:
Test in all cases: NCI-60 cell line screen, 48 h
786-0 renal = tested on: 786-0 renal
A549 NSCLC = tested on: A549 NSCLC
ACHN renal = tested on: ACHN renal
BT-549 breast = tested on: BT-549 breast
CAKI-1 renal = tested on: CAKI-1 renal
CCRF-CEM leukemia = tested on: CCRF-CEM leukemia
COLO 205 colon = tested on: COLO 205 colon
DU-145 prostate = tested on: DU-145 prostate
EKVX NSCLC = tested on: EKVX NSCLC
HCC-2998 colon = tested on: HCC-2998 colon
HCT-15 colon = tested on: HCT-15 colon
HOP-62 NSCLC = tested on: HOP-62 NSCLC
HOP-92 NSCLC = tested on: HOP-92 NSCLC
HT29 colon = tested on: HT29 colon
IGROV1 ovarian = tested on: IGROV1 ovarian
K-562 leukemia = tested on: K-562 leukemia
KM12 colon = tested on: KM12 colon
LOX IMVI melanoma = tested on: LOX IMVI melanoma
M14 melanoma = tested on: M14 melanoma
MALME-3M melanoma = tested on: MALME-3M melanoma
MCF7 breast = tested on: MCF7 breast
MDA-MB-231 breast = tested on: MDA-MB-231 breast
MDA-MB-435 = tested on: MDA-MB-435
MOLT-4 leukemia = tested on: MOLT-4 leukemia
NCI-H226 lung = tested on: NCI-H226 lung
NCI-H23 lung = tested on: NCI-H23 lung
NCI-H460 lung = tested on: NCI-H460 lung
NCI-H522 lung = tested on: NCI-H522 lung
NCI/ADR-RES ovarian = tested on: NCI/ADR-RES ovarian
OVCAR-3 ovarian = tested on: OVCAR-3 ovarian
OVCAR-4 ovarian = tested on: OVCAR-4 ovarian
OVCAR-5 ovarian = tested on: OVCAR-5 ovarian
OVCAR-8 ovarian = tested on: OVCAR-8 ovarian
PC-3 prostate = tested on: PC-3 prostate
RPMI-8226 leukemia = tested on: RPMI-8226 leukemia
RXF 393 renal = tested on: RXF 393 renal
SF-268 CNS = tested on: SF-268 CNS
SF-295 CNS = tested on: SF-295 CNS
SF-539 CNS = tested on: SF-539 CNS
SK-MEL-2 melanoma = tested on: SK-MEL-2 melanoma
SK-MEL-28 melanoma = tested on: SK-MEL-28 melanoma
SK-OV-3 ovarian = tested on: SK-OV-3 ovarian
SN12C renal = tested on: SN12C renal
SNB-19 CNS = tested on: SNB-19 CNS
SNB-75 CNS = tested on: SNB-75 CNS
SR leukemia = tested on: SR leukemia
SW-620 colon = tested on: SW-620 colon
T-47D breast = tested on: T-47D breast
TK-10 renal = tested on: TK-10 renal
U251 CNS = tested on: U251 CNS
UACC-257 melanoma = tested on: UACC-257 melanoma
UACC-62 melanoma = tested on: UACC-62 melanoma
UO-31 renal = tested on: UO-31 renal
A498 renal = tested on: A498 renal
HCT-116 colon = tested on: HCT-116 colon
HS 578T breast = tested on: HS 578T breast
SK-MEL-5 melanoma = tested on: SK-MEL-5 melanoma

## CCCCCCCCCN=C(N)c1ccc(N2CCN(c3ccc(C(N)=NCCCCCCCCC)cc3)CC2)cc1
786-0 renal
  GI50: 3.4 µM
  TGI: > 50 µM
A549 NSCLC
  GI50: 1.57 µM
  TGI: 10.5 µM
ACHN renal
  GI50: 2.19 µM
  TGI: 12.7 µM
BT-549 breast
  GI50: 1.13 µM
  TGI: 2.71 µM
CAKI-1 renal
  GI50: 1.86 µM
  TGI: 8.42 µM
CCRF-CEM leukemia
  GI50: 1.77 µM
  TGI: 8.34 µM
COLO 205 colon
  GI50: 1.78 µM
  TGI: 7.94 µM
DU-145 prostate
  GI50: 2.35 µM
  TGI: 8.06 µM
EKVX NSCLC
  GI50: 1.95 µM
  TGI: 7.72 µM
HCC-2998 colon
  GI50: 1.82 µM
  TGI: 6.14 µM
HCT-15 colon
  GI50: 2.05 µM
  TGI: 13.5 µM
HOP-62 NSCLC
  GI50: 2.72 µM
  TGI: > 50 µM
HOP-92 NSCLC
  GI50: 4.1 µM
  TGI: > 50 µM
HT29 colon
  GI50: 1.3 µM
  TGI: 7.4 µM
IGROV1 ovarian
  GI50: 1.66 µM
  TGI: > 50 µM
K-562 leukemia
  GI50: 1.72 µM
  TGI: 17 µM
KM12 colon
  GI50: 1.7 µM
  TGI: 5.67 µM
LOX IMVI melanoma
  GI50: 2.1 µM
  TGI: 10.7 µM
M14 melanoma
  GI50: 3.09 µM
  TGI: > 50 µM
MALME-3M melanoma
  GI50: 1.37 µM
  TGI: 3.74 µM
MCF7 breast
  GI50: 0.704 µM
  TGI: 1.54 µM
MDA-MB-231 breast
  GI50: 1.41 µM
  TGI: 5.59 µM
MDA-MB-435
  GI50: 1.74 µM
  TGI: 5.35 µM
MOLT-4 leukemia
  GI50: 1.58 µM
  TGI: > 50 µM
NCI-H226 lung
  GI50: 3.77 µM
  TGI: > 50 µM
NCI-H23 lung
  GI50: 1.67 µM
  TGI: 6.37 µM
NCI-H460 lung
  GI50: 1.61 µM
  TGI: 5.13 µM
NCI-H522 lung
  GI50: 2.36 µM
  TGI: 21.4 µM
NCI/ADR-RES ovarian
  GI50: 3.56 µM
  TGI: > 50 µM
OVCAR-3 ovarian
  GI50: 1.1 µM
  TGI: 3.83 µM
OVCAR-4 ovarian
  GI50: 3.86 µM
  TGI: > 50 µM
OVCAR-5 ovarian
  GI50: 3.13 µM
  TGI: 11 µM
OVCAR-8 ovarian
  GI50: 1.62 µM
  TGI: 5.95 µM
PC-3 prostate
  GI50: 1.74 µM
  TGI: 5.87 µM
RPMI-8226 leukemia
  GI50: 1.96 µM
  TGI: > 50 µM
RXF 393 renal
  GI50: 1.04 µM
  TGI: 3.01 µM
SF-268 CNS
  GI50: 1.22 µM
  TGI: 4.04 µM
SF-295 CNS
  GI50: 1.24 µM
  TGI: 2.57 µM
SF-539 CNS
  GI50: 2 µM
  TGI: 4.48 µM
SK-MEL-2 melanoma
  GI50: 2.88 µM
  TGI: > 50 µM
SK-MEL-28 melanoma
  GI50: 1.6 µM
  TGI: 4.27 µM
SK-OV-3 ovarian
  GI50: 2.65 µM
  TGI: 33.1 µM
SN12C renal
  GI50: 1.52 µM
  TGI: 7.85 µM
SNB-19 CNS
  GI50: 2.29 µM
  TGI: 15.8 µM
SNB-75 CNS
  GI50: 1.1 µM
  TGI: 4.75 µM
SR leukemia
  GI50: 2.75 µM
  TGI: > 50 µM
SW-620 colon
  GI50: 1.52 µM
  TGI: 3.55 µM
T-47D breast
  GI50: 2.44 µM
  TGI: 11.8 µM
TK-10 renal
  GI50: 4.3 µM
  TGI: 14.7 µM
U251 CNS
  GI50: 0.518 µM
  TGI: 1.41 µM
UACC-257 melanoma
  GI50: 1.2 µM
  TGI: 3.08 µM
UACC-62 melanoma
  GI50: 2.45 µM
  TGI: 22.1 µM
UO-31 renal
  GI50: 3.5 µM
  TGI: > 50 µM

## COC(=O)C1C(C(=O)O)C2(c3ccccc3)C(=O)C1(c1ccccc1)C(c1ccc(OC)cc1)=C2c1ccc(OC)cc1 (configuration not stated)
786-0 renal
  GI50: 18.6 µM
  TGI: 40.4 µM
A498 renal
  GI50: 23.2 µM
  TGI: 46.2 µM
A549 NSCLC
  GI50: 15.7 µM
  TGI: 33.5 µM
ACHN renal
  GI50: 36.6 µM
  TGI: > 100 µM
BT-549 breast
  GI50: 15.8 µM
  TGI: 33.6 µM
CAKI-1 renal
  GI50: 20.9 µM
  TGI: 43.6 µM
CCRF-CEM leukemia
  GI50: 13.2 µM
  TGI: 38.5 µM
COLO 205 colon
  GI50: 16.4 µM
  TGI: 38.8 µM
DU-145 prostate
  GI50: 19.9 µM
  TGI: 49.8 µM
EKVX NSCLC
  GI50: 18.6 µM
  TGI: 52.7 µM
HCC-2998 colon
  GI50: 13.9 µM
  TGI: 27.8 µM
HCT-116 colon
  GI50: 17.3 µM
  TGI: 33.6 µM
HCT-15 colon
  GI50: 38.6 µM
  TGI: > 100 µM
HOP-62 NSCLC
  GI50: 20.4 µM
  TGI: 47.5 µM
HOP-92 NSCLC
  GI50: 4.87 µM
  TGI: 28.4 µM
HS 578T breast
  GI50: 22.1 µM
  TGI: 72.3 µM
IGROV1 ovarian
  GI50: 19.9 µM
  TGI: 45.8 µM
K-562 leukemia
  GI50: 28.4 µM
  TGI: > 100 µM
KM12 colon
  GI50: 27 µM
  TGI: 74.6 µM
LOX IMVI melanoma
  GI50: 33.2 µM
  TGI: > 100 µM
M14 melanoma
  GI50: 18.6 µM
  TGI: 34.8 µM
MALME-3M melanoma
  GI50: 29.8 µM
  TGI: 75.7 µM
MCF7 breast
  GI50: 20.3 µM
  TGI: 38.9 µM
MDA-MB-231 breast
  GI50: 24 µM
  TGI: 54.5 µM
MDA-MB-435
  GI50: 28.8 µM
  TGI: 60.7 µM
MOLT-4 leukemia
  GI50: 18 µM
  TGI: 43.4 µM
NCI-H226 lung
  GI50: 21.9 µM
  TGI: 55.6 µM
NCI-H23 lung
  GI50: 17.5 µM
  TGI: 33.7 µM
NCI-H460 lung
  GI50: 13.7 µM
  TGI: 31 µM
NCI-H522 lung
  GI50: 17 µM
  TGI: 41.9 µM
NCI/ADR-RES ovarian
  GI50: 20.6 µM
  TGI: 43.6 µM
OVCAR-3 ovarian
  GI50: 17.3 µM
  TGI: 41.2 µM
OVCAR-4 ovarian
  GI50: 19.7 µM
  TGI: 55.2 µM
OVCAR-5 ovarian
  GI50: 20.8 µM
  TGI: 45.9 µM
OVCAR-8 ovarian
  GI50: 15.9 µM
  TGI: 30.8 µM
PC-3 prostate
  GI50: 13 µM
  TGI: 31.3 µM
RPMI-8226 leukemia
  GI50: 18.2 µM
  TGI: 48.5 µM
RXF 393 renal
  GI50: 16.1 µM
  TGI: 34.8 µM
SF-268 CNS
  GI50: 25 µM
  TGI: 82.2 µM
SF-295 CNS
  GI50: 30.3 µM
  TGI: 77.2 µM
SF-539 CNS
  GI50: 17.7 µM
  TGI: 34 µM
SK-MEL-2 melanoma
  GI50: 20.5 µM
  TGI: 44 µM
SK-MEL-5 melanoma
  GI50: 16.8 µM
  TGI: 32.4 µM
SK-OV-3 ovarian
  GI50: 25.3 µM
  TGI: 59.4 µM
SN12C renal
  GI50: 20.5 µM
  TGI: 49 µM
SNB-19 CNS
  GI50: 22.4 µM
  TGI: 77.3 µM
SR leukemia
  GI50: 27.2 µM
  TGI: 63 µM
SW-620 colon
  GI50: 23.2 µM
  TGI: 46.6 µM
TK-10 renal
  GI50: 31.8 µM
  TGI: > 100 µM
U251 CNS
  GI50: 36.6 µM
  TGI: > 100 µM
UACC-257 melanoma
  GI50: 19.1 µM
  TGI: 43.9 µM
UACC-62 melanoma
  GI50: 18.8 µM
  TGI: 35.2 µM
UO-31 renal
  GI50: 25.8 µM
  TGI: 75 µM
